# Patent US4226885A, “Guanylhydrazones and medicaments containing them” (Choay S.A., priority 1977, dated 1980)
# Where two headings read alike, the source gives them in different places.
# What was measured:
# [1] = target: rat liver monoaminoxydase; assay: I.M.A.O. activity: inhibition of rat liver monoaminoxydase (spectrophotometric, kynuramine as substratum); assay type: biochemical; conditions: 50% inhibition
# Experimental: The inhibiting activity of the envisaged guanyl hydrazones in relation to rat liver monoaminoxydase was determined by means of a spectrophotometric method, using kynuramine as substratum.
# The I.M.A.O. activity was determined for various concentrations of guanyl hydrazone. The concentrations for which one obtains 50% inhibition relate to the pI 50, which is calculated as follows: […]
# For each concentration about ten experiments are carried out, from which the mean activity Yi is determined. Only concentrations giving a Yi between 15 and 85% of activity are retained.
# Assume N concentrations Ci retained; to each Ci there correspond a certain number ni of experiments and a mean activity Yi.
# Assume in all NT=Σni experiments.
# (a) The equation of the straight line Yi =f (Ci) is calculated by the method of least squares.
# To this straight line there are attached different statistic tests to express its validity, as straight line only.
# Then the corresponding concentration is deduced for Y=50%.
# (b) Statistical calculations permit evaluation of the legitimacy of the linear model. These calculations take account of all the points, that is to say NT experiments, whereas the straight line is determined from the mean activities only, which means that these calculations take account of the dispersion which affects every average.
# (c) Calculation of the confidence interval for α=0.05.
# The pI50 s of the compounds 1 to 7 appearing in Table I above were calculated by application of the method as just described; they have been listed in Table II below: […]
# Lipidium sativum = assay: Inhibition of the growth of the root meristem of Lipidium sativum (vegetable cells); assay type: in vivo; conditions: for inhibiting activity (root growth, in words): Lipidium sativum test
# Experimental: The test of the inhibition of the growth of the root meristem of Lipidium sativum was used, which test is used to evaluate the cytostatic action of series of drugs. It consists in placing germinated grains of Lipidium sativum in 15 ml. of aqueous solution containing 1% of methyl cellulose, in which the guanyl hydrazones are placed in suspension.
# After leaving in darkness for 24 hours at the temperature of 27° C., the elongation of the root in comparison with that of a control batch (Li Lipidium sativum grain in methyl cellulose medium) is determined.
# The validity of the linear model was evaluated with the aid of test F: [formula]
# In the example supplied, for the calculation of the confidence interval for α=0.05, one finds:
# that is to say one has five chances per hundred, if one repeats another series of measurements, of finding a pI 50 outside this limit.
# [2] = test system: fibro-sarcomas induced by methyl cholanthrene, tumour cells in culture; assay: Tumour culture: inhibition of multiplication of methyl cholanthrene-induced fibro-sarcoma cells in vitro; assay type: cell-based; conditions: Rattus norvegicus; for inhibition at 10 µM: 10^-5 molar; for inhibition at 1 µM: 10^-6 molar
# Experimental: (§1) A supplementary study of the activity of these products upon the inhibition of growth of animal cells was effected by tumour culture. On fibro-sarcomas induced by methyl cholanthrene (O. Flandre et coll. C.R. Jour. biol. 1966. 160 152) the products were tested: upon tumour cells in culture "in vitro" and upon treated rats.
# 1. upon tumour cells in culture "in vitro" the results of the tested products are reported in Table IV below, which expresses the cellular count at the 72nd hour after sub-culture, in the presence of the substances to be studied.
# The results are expressed in percentage of diminution of the number of cells in comparison with the control.
# The determinations were effected with the products at three molar concentrations: 10^-4, 10^-5 and 10^-6.
# This concerns fibro-sarcomas induced by methyl cholanthrene according to a technique described by O. FLANDRE, I. CIURANA, J. SECCHI and M. DAMON: Reports of the Sittings of the Biology Society, Volume 160, No. 1, 1966, page 152.
# The products can be tested either upon tumour cells cultivated in vitro, or upon the rat treated by tumour cell injections either in situ or by intraperitoneal injection.
# The preliminary experiments carried out with the substances according to the invention, tested on tumour cells cultivated in vitro, disclose a retardation of the cellular multiplication.
# [3] = test system: fibro-sarcoma induced by methyl cholanthrene; assay: Development of a fibro-sarcoma induced by methyl cholanthrene in vivo in the rat; conditions: daily 50 mg./kg in two doses, over three months, vs untreated rats
# Experimental: as §1
# 2. Inhibiting action upon the development of a fibro-sarcoma induced by methyl cholanthrene "in vivo" in the rat.
# platelet aggregation = assay: Platelet anti-aggregant action (BORN's method); assay type: cell-based, human or rabbit
# Experimental: The determination of the platelet aggregability was effected according to BORN's method, using a LABINTEC aggregometer.
# Firstly a platelet-rich plasma (or PRP) and next a platelet-poor plasma (or PPP or PDP) are prepared from human blood or rabbit's blood, and the apparatus is calibrated.
# Then the aggregating power of the plasma (PRP) is determined in relation to the PDP in the presence and in the absence of guanyl hydrazone. Thus it is possible to determine the percentage of inhibition of platelet aggregation as a function of the concentration. The curves obtained permit of determining a pI 50. […]
# [4] = mouse; cited from earlier work
# Rat fibroblast cultures = assay: Action upon cultures of trypsinised fibroblasts; assay type: cell-based; conditions: read-out: percentage of inhibition in comparison with the control, heading: percentage of inhibition in comparison with the control, 10^-4 M, 48 and 72 hours
# Experimental: Rat fibroblast cultures are concerned and the strains have been maintained for several years.
# For single-layer cultivation in Roux flasks, Trypsinisation at 0.25% detaches the cells from the flask on the one hand and from one another on the other hand.
# The cells are distributed in lamellated tubes at the rate of 250,000 cells per ml., where they are deposited.
# The products to be tested are introduced at different dilutions, and left to act for 48 and 72 hours.
# Next, the counting of the cells is effected (10 fields for 5 blades) and the results obtained are compared with control tumours which have not received the product to be tested.
# [5] = test system: rat embryo cultures (muscle fragment); assay: Culture in explants: mitotic index of rat embryo cultures; assay type: cell-based; conditions: for mitotic index: 4th day, control culture 2.5%; for number of mitoses at the metaphase level: vs control culture
# Experimental: This concerns rat embryo cultures kept for at least 6 months (muscle fragment). The explants are placed in culture in plasma coagulum (cock plasma). The cultures are fed with nutrient medium (Hanx+embryonary extract+decomplemented calf foetus serum). 24 hours after placing in plasma coagulum, the product to be tested is added at different dilutions. The cultures are examined on the 4th day and the counting of the number of mitoses is effected in the growth zone of the explants. The percentage of each of the phases of the mitosis is determined for the whole (mitotic index).
# [6] = test system: fibro-sarcomas induced by methyl cholanthrene, tumour cells in culture; assay: Tumour culture: inhibition of multiplication of methyl cholanthrene-induced fibro-sarcoma cells in vitro; assay type: cell-based; conditions: Rattus norvegicus, read-out: percentage of inhibition in comparison with the control; heading: percentage of inhibition in comparison with the control; B3 tumour culture, 10^-3 M
# ADN = conditions: cited from earlier work
# [7] = test system: synthesis of nucleic acids; conditions: cited from earlier work
# [8] = test system: leukaemias, Hodgkin's disease; conditions: cited from earlier work
# [9] = 50% inhibition of root growth, 24 hours, 27° C., darkness, read-out: pI 50 (guanyl hydrazones) (converted)
# [10] = 72 h, 10^-4 molar, 72nd hour after sub-culture, read-out: percentage of diminution of the number of cells in comparison with the control
# [11] = 72 h, 72nd hour after sub-culture, read-out: percentage of diminution of the number of cells in comparison with the control
# [12] = phenoxyacetic acid corresponding to the numbered guanyl hydrazone, root growth, read-out: Corresponding phenoxyacetic acid pI 50 (converted)
# [13] = concentration of 10^-4 mol, read-out: retardation of the cellular multiplication
# [14] = platelet-rich plasma, human blood or rabbit's blood, Table V, read-out: PI50 (platelet aggregation) (converted)
Structure (SMILES),pI 50 [1],IC50 (Lipidium sativum; [9]) [µM],"inhibition at 100 µM [2, 10] [%]","inhibition at 10 µM [2, 11] [%]","inhibition at 1 µM [2, 11] [%]","inhibiting activity (root growth, in words) (Lipidium sativum)",IC50 (platelet aggregation; [14]) [µM],other results
COc1cccc(OCC=NNC(=N)N)c1 [Compound 6],5.16,191,18.4,12.6,0,–,–,–
"O=C(O)COc1ccccc1 [1 (corresponding phenoxyacetic acid), reference compound]",–,–,–,–,–,–,–,IC50 (Lipidium sativum; [12]): 631 µM
N=C(N)NN=CCOc1ccc(Br)cc1 [Compound 12],–,2.88,57.1,40.4,0,great inhibiting activity,562,"inhibition at 100 µM [2, 13]: > 30%; development of the tumours (weight estimations) [3]: clearly retarded"
N=C(N)NN=Cc1ccc([N+](=O)[O-])o1 [5-nitrofurfuraldehyde guanyl hydrazone],–,–,–,–,–,–,–,anti-tumoral activity [4]: a certain anti-tumoral activity in the mouse
N=C(N)NN=CCOc1ccc(Cl)cc1 [Compound 4],4.70,7.24,36.8,23.7,7.89,great inhibiting activity,562,"pI 50 (guanyl hydrazones) (Lipidium sativum; 50% inhibition of root growth, 24 hours, 27° C., darkness): 5.14±0.08; inhibition at 100 µM [2, 13]: > 30%; inhibition at 100 µM (Rat fibroblast cultures): ~77%; mitotic index [5]: 1.2%; number of mitoses at the metaphase level [5]: significant reduction of the number of mitoses at the metaphase level; inhibition at 1000 µM [6]: ~45%"
Cc1ccccc1OCC=NNC(=N)N [Compound 8],–,38.9,10.7,7.89,0,great inhibiting activity,525,–
CC(C=NNC(=N)N)=NNC(=N)N [methyl-glyoxal-bis (guanyl hydrazone)],–,–,–,–,–,–,–,"complex formation with ADN (ADN): forms complexes with ADN; inhibition of nucleic acid synthesis [7]: inhibits the synthesis of nucleic acids; action in Hodgkin's disease ([8]; Hodgkin's disease): sometimes but rarely efficacious; action in acute myeloblastic and promyelocytary leukaemias ([8]; acute myeloblastic and promyelocytary leukaemias): action has been verified; action in acute transformations of chronic myeloid leukaemia and other leukaemias ([8]; acute transformations of chronic myeloid leukaemia and other leukaemias): less efficacious; side effects on administration ([8]; in vivo): various cutaneous, digestive and metabolic troubles, in particular hypoglycaemia"
N=C(N)NN=CCOc1cccc(Cl)c1 [Compound 3],4.70,33.9,31.6,26.3,0,great inhibiting activity,490,"inhibition at 100 µM [2, 13]: > 30%"
"Cc1ccc(OCC=NNC(=N)N)cc1 [Compound 10, p-methyl phenoxy acetaldehyde guanyl hydrazone]",–,58.9,25,23.7,0,–,813,–
"COc1ccccc1OCC=NNC(=N)N [Compound 5, o-methoxy phenoxy acetaldehyde guanyl hydrazone]",4.94,224,5.26,2.63,0,–,1100,–
"N=C(N)NN=CCOc1ccccc1Cl [Compound 2, o-chlorophenoxy acetaldehyde guanyl hydrazone]",4.94,162,15.8,13.2,7.89,–,603,–
Cc1cccc(OCC=NNC(=N)N)c1 [Compound 9],–,26.3,32.1,13.2,10.5,great inhibiting activity,692,"inhibition at 100 µM [2, 13]: > 30%"
"O=C(O)COc1ccccc1Cl [2 (corresponding phenoxyacetic acid), reference compound]",–,–,–,–,–,–,–,IC50 (Lipidium sativum; [12]): 112 µM
"Cc1ccccc1OCC(=O)O [8 (corresponding phenoxyacetic acid), reference compound]",–,–,–,–,–,–,–,IC50 (Lipidium sativum; [12]): 11 µM
N=C(N)NN=CCOc1ccc(F)cc1 [Compound 13],–,–,–,–,–,–,977,–
"CC(=O)Oc1ccccc1C(=O)O [Lysine acetylsalicylate, reference compound]",–,–,–,–,–,–,–,"IC50 (platelet aggregation; Platelet, read-out: PI50 (platelet aggregation)): 51300 µM"
CC(C)c1ccccc1OCC=NNC(=N)N [Compound 11],–,39.8,78.6,42.1,18.4,great inhibiting activity,–,"inhibition at 100 µM [2, 13]: > 30%; development of the tumours (weight estimations) [3]: clearly retarded; inhibition at 100 µM (Rat fibroblast cultures): ~100%; mitotic index [5]: 1.9%; number of mitoses at the metaphase level [5]: significant reduction of the number of mitoses at the metaphase level"
COc1ccc(OCC=NNC(=N)N)cc1 [Compound 7],4.50,102,15.8,15.3,0,–,1380,–
N=C(N)NN=CCOc1ccccc1 [Compound 1],4.90,692,15.8,7.89,5.26,–,1200,inhibition at 1000 µM [6]: ~25%
